Values quoted from earlier work in article PMC11682675 (Infection and Drug Resistance, 2024).
Residues, ends and D or L forms follow the SMILES beside them.

Conditions: reported by some studies

CC[C@H](C)CCCCC(=O)N[C@@H](CCN)C(=O)N[C@H](C(=O)N[C@@H](CCN)C(=O)N[C@H]1CCNC(=O)[C@H]([C@@H](C)O)NC(=O)[C@H](CCN)NC(=O)[C@H](CCN)NC(=O)[C@H](CC(C)C)NC(=O)[C@@H](Cc2ccccc2)NC(=O)[C@H](CCN)NC1=O)[C@@H](C)O [PMB, Polymyxin B] (HELM PEPTIDE1{[CC[C@H](C)CCCCC(=O)[*:2]].[Dab].T.[Dab].[Dab].[Dab].[dF].L.[Dab].[Dab].T}$PEPTIDE1,PEPTIDE1,5:R3-11:R2$$$V2.0)
CL of PMB in ECMO patients: 1.16 L/h | Vd of PMB in ECMO patients: 19.7 L
